This is an account of results in US7323469B2, “7H-pyrrolo[2,3-d]pyrimidine derivatives” (Novartis AG, priority 2001, dated 2008).

One data set deals with T1, EGF-R (HER-1) (Homo sapiens, UniProt P00533).
T1 construct: using the recombinant intracellular domain of the EGF-receptor [EGF-R ICD
As to the kind of experiment: Inhibition of EGF-R tyrosine kinase activity (recombinant intracellular domain, EGF-R ICD). The data set is classed as biochemical. The protocol:
J. Biochem. 207, 265-275 (1992)].
(§1) Inhibition of the Tyrosine Kinase Activity of EGF-R (HER-1), ErbB-2 (HER-2) and VEGF Receptor (KDR)
(§2) The inhibition tests are carried out as described above.

Another data set deals with ErbB-2 (HER-2) (Homo sapiens, UniProt P04626). As to the kind of experiment: Inhibition of ErbB-2 tyrosine kinase activity. The data set is classed as biochemical. The protocol: The inhibitory activity (IC50) is approximately in the range of 0.001 to 0.5 μM. The inhibition of ErbB-2 tyrosine kinase (HER-2) can be determined, for example, analogously to the method used for EGF-R protein tyrosine kinase [see C. House et al., Europ. J. Biochem. 140, 363-367 (1984)]. The ErbB-2 kinase can be isolated, and its activity determined, by means of protocols known per se, for example in accordance with T. Akiyama et al., Science 232, 1644 (1986).
as §1, §2

The next data set has as its target VEGF Receptor (KDR) (Homo sapiens, UniProt P35968). In words: Inhibition of KDR tyrosine kinase activity. The data set is classed as biochemical. As to the method:
The compounds of the present invention are therefore very effective dual inhibitors of EGF- and VEGF-receptor family members. For inhibition of KDR and Flt-1 and inhibition of growth factor-induced proliferation of HUVECS see J. Wood et al., Cancer Res. 60, 2178-2189 (2000). The compounds of formula I inhibit e.g. the KDR tyrosine kinase activity with an IC50 of from about 1 nM to about 1 μM, especially from about 5 nM to about 0.5 μM.
as §1, §2

Sequence of ErbB-2 (HER-2) (P04626 23-1255): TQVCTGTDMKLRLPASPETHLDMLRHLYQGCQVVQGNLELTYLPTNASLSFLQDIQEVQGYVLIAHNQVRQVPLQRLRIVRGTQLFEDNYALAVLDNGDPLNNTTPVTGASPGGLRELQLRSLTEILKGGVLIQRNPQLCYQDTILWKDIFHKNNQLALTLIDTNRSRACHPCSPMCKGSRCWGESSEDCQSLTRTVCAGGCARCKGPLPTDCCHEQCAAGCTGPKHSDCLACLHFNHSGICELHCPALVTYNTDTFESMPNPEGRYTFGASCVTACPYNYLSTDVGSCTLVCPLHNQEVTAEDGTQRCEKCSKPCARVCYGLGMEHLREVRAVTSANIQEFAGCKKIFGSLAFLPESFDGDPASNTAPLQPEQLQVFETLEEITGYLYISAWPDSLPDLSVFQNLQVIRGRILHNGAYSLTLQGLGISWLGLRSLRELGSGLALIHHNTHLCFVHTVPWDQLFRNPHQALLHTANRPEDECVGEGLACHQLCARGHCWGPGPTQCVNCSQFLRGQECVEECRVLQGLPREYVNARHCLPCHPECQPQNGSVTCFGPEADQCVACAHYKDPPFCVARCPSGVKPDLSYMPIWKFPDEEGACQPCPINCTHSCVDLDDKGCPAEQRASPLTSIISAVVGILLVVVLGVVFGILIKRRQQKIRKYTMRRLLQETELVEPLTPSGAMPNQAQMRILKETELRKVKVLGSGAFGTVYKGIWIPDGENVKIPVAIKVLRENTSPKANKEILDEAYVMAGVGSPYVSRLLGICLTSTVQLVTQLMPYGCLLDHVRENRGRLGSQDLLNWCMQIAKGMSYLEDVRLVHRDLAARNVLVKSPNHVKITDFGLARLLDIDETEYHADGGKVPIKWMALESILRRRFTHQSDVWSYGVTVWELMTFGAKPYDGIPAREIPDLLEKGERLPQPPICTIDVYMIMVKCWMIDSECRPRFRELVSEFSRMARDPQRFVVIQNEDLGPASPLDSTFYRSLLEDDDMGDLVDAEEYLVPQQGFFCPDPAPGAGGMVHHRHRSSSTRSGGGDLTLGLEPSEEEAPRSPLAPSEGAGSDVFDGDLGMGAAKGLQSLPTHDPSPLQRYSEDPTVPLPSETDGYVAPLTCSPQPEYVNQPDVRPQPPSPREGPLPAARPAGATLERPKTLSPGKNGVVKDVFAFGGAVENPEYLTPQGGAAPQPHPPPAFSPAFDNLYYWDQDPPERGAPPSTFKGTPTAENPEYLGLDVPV
T1 sequence (P00533 669-1210 limits assumed): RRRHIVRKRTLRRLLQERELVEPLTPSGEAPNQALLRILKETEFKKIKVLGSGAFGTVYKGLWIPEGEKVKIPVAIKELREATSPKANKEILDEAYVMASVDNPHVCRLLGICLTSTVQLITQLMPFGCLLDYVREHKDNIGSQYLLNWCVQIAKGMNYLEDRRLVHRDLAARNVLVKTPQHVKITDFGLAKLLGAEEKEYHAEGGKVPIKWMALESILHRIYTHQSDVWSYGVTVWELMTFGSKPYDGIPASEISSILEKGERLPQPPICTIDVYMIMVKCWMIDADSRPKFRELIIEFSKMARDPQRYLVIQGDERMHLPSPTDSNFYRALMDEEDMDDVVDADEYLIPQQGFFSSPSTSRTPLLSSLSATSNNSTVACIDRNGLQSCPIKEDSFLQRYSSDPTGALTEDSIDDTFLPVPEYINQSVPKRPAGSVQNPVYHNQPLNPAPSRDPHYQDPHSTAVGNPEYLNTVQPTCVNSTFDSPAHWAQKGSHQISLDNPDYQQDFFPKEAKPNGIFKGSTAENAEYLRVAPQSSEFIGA
Sequence of VEGF Receptor (KDR) (P35968 20-1356): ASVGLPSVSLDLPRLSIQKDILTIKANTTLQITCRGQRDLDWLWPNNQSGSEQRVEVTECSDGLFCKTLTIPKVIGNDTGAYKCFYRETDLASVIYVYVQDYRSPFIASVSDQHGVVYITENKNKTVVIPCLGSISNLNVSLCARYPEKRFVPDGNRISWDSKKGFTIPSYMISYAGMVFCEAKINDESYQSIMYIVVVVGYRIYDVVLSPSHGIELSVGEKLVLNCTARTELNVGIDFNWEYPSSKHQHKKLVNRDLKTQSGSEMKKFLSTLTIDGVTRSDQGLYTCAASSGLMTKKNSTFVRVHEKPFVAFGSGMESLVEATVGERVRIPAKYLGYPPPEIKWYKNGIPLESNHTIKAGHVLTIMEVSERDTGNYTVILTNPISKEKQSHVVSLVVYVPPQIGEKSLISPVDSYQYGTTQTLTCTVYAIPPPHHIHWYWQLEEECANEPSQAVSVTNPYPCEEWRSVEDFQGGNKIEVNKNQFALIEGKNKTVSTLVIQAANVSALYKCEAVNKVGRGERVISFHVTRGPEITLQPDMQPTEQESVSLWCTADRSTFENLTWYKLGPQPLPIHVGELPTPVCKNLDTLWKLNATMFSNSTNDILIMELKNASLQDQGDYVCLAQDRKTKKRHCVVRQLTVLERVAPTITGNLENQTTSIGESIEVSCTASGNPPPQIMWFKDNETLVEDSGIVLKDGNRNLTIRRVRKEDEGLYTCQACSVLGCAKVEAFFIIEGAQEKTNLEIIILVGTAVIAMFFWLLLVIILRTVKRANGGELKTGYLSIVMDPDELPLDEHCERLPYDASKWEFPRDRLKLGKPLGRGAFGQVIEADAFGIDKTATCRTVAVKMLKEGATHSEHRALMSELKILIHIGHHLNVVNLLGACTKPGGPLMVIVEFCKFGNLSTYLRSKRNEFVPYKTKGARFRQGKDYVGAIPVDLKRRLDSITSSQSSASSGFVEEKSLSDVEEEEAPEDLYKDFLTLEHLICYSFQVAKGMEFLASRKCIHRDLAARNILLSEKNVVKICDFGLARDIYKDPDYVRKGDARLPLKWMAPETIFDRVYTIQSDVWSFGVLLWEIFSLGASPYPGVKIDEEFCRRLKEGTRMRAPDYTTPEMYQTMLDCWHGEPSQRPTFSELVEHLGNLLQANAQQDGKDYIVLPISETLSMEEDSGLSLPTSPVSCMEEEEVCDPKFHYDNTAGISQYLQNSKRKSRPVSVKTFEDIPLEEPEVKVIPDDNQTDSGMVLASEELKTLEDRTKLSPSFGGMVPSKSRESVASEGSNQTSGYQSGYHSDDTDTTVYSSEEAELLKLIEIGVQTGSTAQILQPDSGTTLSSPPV

The melting point is the temperature, or range, at which the solid turns liquid. By IC50 is commonly meant the concentration that inhibits the measured activity by half. `C[C@@H](Nc1ncnc2[nH]c(-c3ccc(CN4CCCCC4)cc3)cc12)c1ccccc1` [Example 14, ((R)-1-Phenyl-ethyl)-[6-(4-piperidin-1-ylmethyl-phenyl)-7H-pyrrolo[2,3-d]pyrimidin-4-yl]-amine] registered a melting point of 246 to 248 °C. The IC50 at EGF-R (HER-1) was found to be 6.3 nM. Moreover, at ErbB-2 (HER-2), the IC50 was determined as 8.5 nM. This compound showed an IC50 at VEGF Receptor (KDR) of 92.7 nM.
In the case of `C[C@@H](Nc1ncnc2[nH]c(-c3ccc(CN4CCOCC4)cc3)cc12)c1ccccc1` [Example 15, [6-(4-Morpholin-4-ylmethyl-phenyl)-7H-pyrrolo[2,3-d]pyrimidin-4-yl]-((R)-1-phenyl-ethyl)-amine], the melting point was 263 to 265 °C. Further, the IC50 at EGF-R (HER-1) turned out to be 5 nM. Moreover, the IC50 at ErbB-2 (HER-2) came out at 6.5 nM. At VEGF Receptor (KDR), this compound displayed a half-maximal inhibitory concentration (IC50) of 49.3 nM.
`C[C@@H](Nc1ncnc2[nH]c(-c3ccc(CNCCN4CCOCC4)cc3)cc12)c1ccccc1` [Example 16a, (6-{4-[(2-Morpholin-4-yl-ethylamino)-methyl]-phenyl}-7H-pyrrolo[2,3-d]pyrimidin-4-yl)-((R)-1-phenyl-ethyl)-amine] showed a melting point of 222 to 224 °C. For the same compound, at EGF-R (HER-1), the IC50 is 1.2 nM. The compound further gave an IC50 against ErbB-2 (HER-2) of 16 nM. On VEGF Receptor (KDR), this compound showed a half-inhibitory concentration (IC50) of 61 nM.
Compound `CN1CCN(Cc2ccc(-c3cc4c(Nc5ccc(OCc6ccccc6)cc5)ncnc4[nH]3)cc2)CC1` [Example 18, (4-Benzyloxy-phenyl)-{6-[4-(4-methyl-piperazin-1-ylmethyl)-phenyl]-7H-pyrrolo[2,3-d]pyrimidin-4-yl}-amine] returned a melting point of 256 to 258 °C. For the same compound, the IC50 on EGF-R (HER-1) is 16.5 nM. This compound also displayed a 50% inhibitory concentration (IC50) on ErbB-2 (HER-2) of 31.5 nM. For the same compound, the IC50 at VEGF Receptor (KDR) came out at 24.5 nM.
For `C[C@@H](Nc1ncnc2[nH]c(-c3ccc(CNC(=O)CN4CCN(C)CC4)cc3)cc12)c1ccccc1` [Example 43, 2-(4-Methyl-piperazin-1-yl)-N-{4-[4-((R)-1-phenyl-ethylamino)-7H-pyrrolo[2,3-d]pyrimidin-6-yl]-benzyl}-acetamide], in that order: 150 to 152 °C, 5 nM, 11.5 nM and 51.5 nM.
For the compound `O=C(CN1CCOCC1)NCc1ccc(-c2cc3c(Nc4ccc(F)c(Cl)c4)ncnc3[nH]2)cc1` [Example 48, N-{4-[4-(3-Chloro-4-fluoro-phenylamino)-7H-pyrrolo[2,3-d]pyrimidin-6-yl]-benzyl}-2-morpholin-4-yl-acetamide], the melting point was in the range of 272 to 275 °C. The IC50 on EGF-R (HER-1) turned out to be 5.7 nM. Besides, the half-inhibitory concentration (IC50) at ErbB-2 (HER-2) is 7.5 nM. The compound further registered a concentration for half-maximal inhibition (IC50) on VEGF Receptor (KDR) of 58 nM.
The compound `CN1CCN(CC(=O)NCc2ccc(-c3cc4c(Nc5ccc(OCc6ccccc6)cc5)ncnc4[nH]3)cc2)CC1` [Example 52, N-{4-[4-(4-Benzyloxy-phenylamino)-7H-pyrrolo[2,3-d]pyrimidin-6-yl]-benzyl}-2-(4-methyl-piperazin-1-yl)-acetamide] gave a melting point of 232 to 234 °C. The concentration for half-maximal inhibition (IC50) at EGF-R (HER-1) came out at 15.7 nM. The compound further gave a half-maximal inhibitory concentration (IC50) at ErbB-2 (HER-2) of 14 nM. Moreover, the 50% inhibitory concentration (IC50) on VEGF Receptor (KDR) turned out to be 125 nM.
`Clc1cccc(CNc2ncnc3[nH]c(-c4ccc(CN5CCOCC5)cc4)cc23)c1` [Example 86, (3-Chloro-benzyl)-[6-(4-morpholin-4-ylmethyl-phenyl)-7H-pyrrolo[2,3-d]pyrimidin-4-yl]-amine] displayed a melting point of 253 to 254.5 °C. The IC50 at EGF-R (HER-1) worked out at 5.5 nM. Moreover, it took 16 nM to reach half-maximal inhibition against ErbB-2 (HER-2) (IC50). The half-maximal inhibitory concentration (IC50) against VEGF Receptor (KDR) is 105 nM.
As for `CN1CCN(Cc2ccc(-c3cc4c(NCc5ccccc5Cl)ncnc4[nH]3)cc2)CC1` [Example 94, (2-Chloro-benzyl)-{6-[4-(4-methyl-piperazin-1-ylmethyl)-phenyl]-7H-pyrrolo[2,3-d]pyrimidin-4-yl}-amine], the melting point fell in the range of 267 to 269 °C. Moreover, on EGF-R (HER-1), the IC50 worked out at 1.8 nM. The compound further came in with an IC50 against ErbB-2 (HER-2) of 16 nM. Inhibition at VEGF Receptor (KDR) was half-maximal at 42 nM (IC50).
